These results are taken from US12590953B2, “Methods for screening cereblon modifying compounds” (CELGENE CORPORATION, priority 2018, dated 2026).

Data set [1] has as its system ZFP91 cereblon-binding zinc finger (a.a. 395-423) / rabbit cereblon. As to the kind of experiment: In vitro ubiquitination of ZFP91 zinc finger by rabbit cereblon. Format: biochemical. The conditions noted are these: with thalidomide. As for the experimental part: Glycine degron-containing zinc fingers are highlighted with stars. […] Ubiquitination reactions were separated by SDS-PAGE followed by anti-MBP western blot. […] Results in panels b and c are representative of 3 independent experiments.
Full length human cereblon, full length mouse cereblon, and full length rabbit cereblon were co-expressed with full length human DDB1 in SF9 insect cells in ESF921 medium in the presence of 50 uM zinc acetate. Cells were resuspended in buffer containing 50 mM Tris-HCl pH 7.5, 500 mM NaCl, 10 mM imidazole, 10% glycerol, 2 mM TCEP, 1× Protease Inhibitor Cocktail (San Diego Bioscience), and 40,000 U Benzonase (Novagen), and sonicated for 30 s. Lysate was clarified by high speed spin at 30,000 rpm for 30 minutes, and clarified lysate was incubated with Ni-NTA affinity resin (Qiagen) for 1 hour. Complex was eluted with buffer containing 500 mM imidazole, and the ZZ-domain-6×His tag removed by thrombin cleavage (Enzyme Research) overnight, combined with dialysis in 10 mM imidazole buffer. Cleaved eluate was incubated with Ni-NTA affinity resin (Qiagen), and the flow-through diluted to 200 mM NaCl for further purification over a Sephacryl S-400 16/60 column (GE Healthcare) in buffer containing 10 mM HEPES pH 7.0, 240 mM NaCl, and 3 mM TECP. […]

For a further data set, the target named is T1, ZFP91 (Homo sapiens, UniProt Q96JP5+Q96SW2).
T1 construct: endogenous in cells; host or cells: Lenti-x 293 cell line with CRISPR-cas9 cereblon knock-out, transfected with GST-cereblon
T1 sequence (Q96JP5 2-570 limits assumed): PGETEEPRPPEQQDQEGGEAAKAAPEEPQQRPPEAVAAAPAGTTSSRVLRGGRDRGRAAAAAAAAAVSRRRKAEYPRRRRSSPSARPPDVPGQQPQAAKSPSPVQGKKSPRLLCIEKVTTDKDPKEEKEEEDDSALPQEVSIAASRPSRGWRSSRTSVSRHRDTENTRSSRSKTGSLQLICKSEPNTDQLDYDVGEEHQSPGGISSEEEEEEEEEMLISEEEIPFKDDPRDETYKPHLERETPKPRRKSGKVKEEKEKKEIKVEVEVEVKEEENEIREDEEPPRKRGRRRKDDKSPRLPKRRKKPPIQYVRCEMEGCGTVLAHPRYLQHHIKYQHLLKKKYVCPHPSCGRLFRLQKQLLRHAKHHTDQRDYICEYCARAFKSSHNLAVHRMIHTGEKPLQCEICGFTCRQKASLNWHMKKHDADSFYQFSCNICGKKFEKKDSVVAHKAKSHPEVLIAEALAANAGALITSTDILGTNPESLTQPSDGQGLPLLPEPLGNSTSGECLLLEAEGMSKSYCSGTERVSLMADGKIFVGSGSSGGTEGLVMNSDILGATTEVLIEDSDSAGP
T1 sequence (Q96SW2 whole entry): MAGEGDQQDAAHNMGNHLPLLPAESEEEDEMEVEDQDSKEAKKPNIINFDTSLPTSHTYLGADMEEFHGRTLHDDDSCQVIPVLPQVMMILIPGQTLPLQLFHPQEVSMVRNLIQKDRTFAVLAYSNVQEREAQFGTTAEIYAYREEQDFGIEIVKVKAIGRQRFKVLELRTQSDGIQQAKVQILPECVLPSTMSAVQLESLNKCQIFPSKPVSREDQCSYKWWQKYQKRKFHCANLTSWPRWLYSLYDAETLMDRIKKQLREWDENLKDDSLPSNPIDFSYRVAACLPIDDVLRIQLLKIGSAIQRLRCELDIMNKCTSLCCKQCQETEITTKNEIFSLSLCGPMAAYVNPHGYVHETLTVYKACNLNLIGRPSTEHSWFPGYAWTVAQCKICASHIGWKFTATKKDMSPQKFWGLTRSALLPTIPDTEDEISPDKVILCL
T1 sequence (Q16531 whole entry partner): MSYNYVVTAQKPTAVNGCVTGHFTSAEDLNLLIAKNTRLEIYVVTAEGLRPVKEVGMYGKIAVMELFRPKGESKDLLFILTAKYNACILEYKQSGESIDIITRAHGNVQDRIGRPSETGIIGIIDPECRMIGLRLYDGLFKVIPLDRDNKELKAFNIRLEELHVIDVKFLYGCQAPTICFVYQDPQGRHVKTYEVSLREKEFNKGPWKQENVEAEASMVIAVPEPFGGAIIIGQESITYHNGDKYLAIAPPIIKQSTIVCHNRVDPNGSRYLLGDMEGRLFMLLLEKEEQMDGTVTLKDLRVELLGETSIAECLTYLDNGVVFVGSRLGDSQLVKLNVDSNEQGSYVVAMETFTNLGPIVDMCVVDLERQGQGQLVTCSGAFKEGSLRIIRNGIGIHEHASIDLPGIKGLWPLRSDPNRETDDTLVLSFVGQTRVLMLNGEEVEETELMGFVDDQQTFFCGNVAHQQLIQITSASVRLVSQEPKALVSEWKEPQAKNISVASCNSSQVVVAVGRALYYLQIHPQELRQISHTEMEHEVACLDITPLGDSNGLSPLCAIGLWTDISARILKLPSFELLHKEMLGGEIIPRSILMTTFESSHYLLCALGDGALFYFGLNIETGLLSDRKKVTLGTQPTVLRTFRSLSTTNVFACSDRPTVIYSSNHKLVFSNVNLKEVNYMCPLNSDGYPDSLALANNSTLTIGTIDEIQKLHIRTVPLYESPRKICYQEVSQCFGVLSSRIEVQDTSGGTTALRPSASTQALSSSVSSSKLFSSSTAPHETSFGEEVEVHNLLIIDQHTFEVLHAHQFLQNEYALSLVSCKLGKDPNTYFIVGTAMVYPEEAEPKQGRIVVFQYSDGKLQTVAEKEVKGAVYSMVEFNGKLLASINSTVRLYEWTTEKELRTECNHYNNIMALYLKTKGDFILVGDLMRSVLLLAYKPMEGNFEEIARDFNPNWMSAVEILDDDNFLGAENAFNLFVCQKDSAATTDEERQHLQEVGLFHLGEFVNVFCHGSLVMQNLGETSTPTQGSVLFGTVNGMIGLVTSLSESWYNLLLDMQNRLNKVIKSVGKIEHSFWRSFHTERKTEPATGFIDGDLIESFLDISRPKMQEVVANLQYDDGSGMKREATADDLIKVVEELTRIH
Put plainly: Degradation of ZFP91 in Lenti-x 293 cells (control substrate). Format: cell-based. The conditions noted are these: Lenti-x 293 cell lines expressing cereblon.

For a further data set, the system named is huCRBN mice. Format: in vivo. The settings on record: for Live fetuses: female, HOM huCRBN (humanized cereblon). The procedure: (§1) Thalidomide was administered to female HOM huCRBN mice by oral gavage at dose levels of 0 (1.0% [w/v] carboxymethylcellulose [1500-3000 cP] in RO deionized water), 100, 300, or 1000 mg/kg/day once daily on Gestation Day [GD] 6 through 15. On GD 15, blood samples were collected from the submandibular vein of mice assigned to study at 0.5, 1, 3, 6, and 24 hours postdose for bioanalytical and toxicokinetic evaluation. […] Mice were euthanized and examined, and a gross necropsy was performed. The ovaries and uterus were examined for number and distribution of corpora lutea, implantation sites, placentae (size, color, and shape), live and dead fetuses, and early and late resorptions. Fetuses were euthanized by an intraperitoneal injection of sodium pentobarbital (390 mg/mL). Fetuses were weighed and examined for sex and external abnormalities. Late resorptions were examined for external abnormalities and sex to the extent possible. The body weight of each fetus was recorded. Fetuses were individually identified with the study number, litter number and uterine distribution. Approximately one-half of the fetuses in each litter were examined for visceral abnormalities by using an adaptation of the sectioning technique of Wilson. Each fetus was fixed in Bouin's solution; sections were stored in alcohol. The remaining fetuses (approximately one-half of the fetuses in each litter) were examined for skeletal abnormalities after staining with alizarin red S. Following examination, skeletal preparations were retained in glycerin with thymol added as a preservative.

A short description of data set [2]: Toxicokinetics in huCRBN mice. The settings on record: oral, GD 15. The class given is in vivo. As for the experimental part:
as §1

Read-outs that look alike come from different tables or passages of the source.

For `O=C1CCC(N2C(=O)c3ccccc3C2=O)C(=O)N1` (stereo not shown) [thalidomide], the “Ubiquitination of ZFP91 zinc finger (a.a. 395-423) by rabbit cereblon” value in data set [1] was “efficiently ubiquitinated by human and rabbit cereblon”. For the same compound, the ZFP91 degradation result at ZFP91 is reported as “exhibited compound-dependent degradation in all cell lines expressing cereblon”. Further, in the data set with huCRBN mice (female huCRBN mice, 0, 100, 300, or 1000 mg/kg/day, GD 6 through 15), the Maternal survival result is “All animals survived to scheduled necropsy on GD 18”. For the same compound, the Live fetuses in the data set with huCRBN mice (mouse, in vivo, 100 mg/kg/day) was 9; in the data set on huCRBN mice (mouse, in vivo, 300 mg/kg/day), 7; in the data set with huCRBN mice (mouse, in vivo, 1000 mg/kg/day), 8. For the same compound, the “Limb defects (fetal skeleton, alizarin red S)” value with huCRBN mice (mouse, in vivo, 1000 mg/kg) is “limb defects were not observed”. Moreover, the “Mean plasma exposure (area under the curve)” value in data set [2] (100 mg/kg/day) is recorded as 35,100 ng·hr/mL; in data set [2] (300 mg/kg/day), 78,600 ng·hr/mL; in data set [2] (1000 mg/kg/day), 143,000 ng·hr/mL.
